The test system of this assay is VEGFA (786-O cells). Kind of assay: VEGFA ELISA Assay (IC50). The assay is classed as cell-based. To be noted: 24 hours incubation, VEGFA in culture supernatant by ELISA. The protocol:
786-O cells in exponential growth phase were seeded in 96-well plate, the cell concentration was 65,000 cells per milliliter of culture medium, 180 ul per well. Compounds were serial diluted to the indicated concentration, and 20 ul compound solutions of different concentrations were added to the corresponding cell wells. The final compound concentrations were as follows (nM): 1.5, 4.6, 13.7, 41.2, 123.5, 370.4, 1111.1, 3333.3, 10000. After 24 hours of incubation, the cell culture supernatant was taken, and the VEGFA concentration was determined using an ELISA kit (purchased from abcam). Finally, the reaction was terminated, and the light absorbance value of each well was measured using a microplate reader at a wavelength of […], and IC50 was calculated by GraphPad Prism. Cell Titer-Glo reagent was used to measure cell viability.

Setting [1] is: Homo sapiens, 786-0, 24 h, class symbols.
[2] abbreviates: Homo sapiens, 786-0, 24 h, numeric values.

From US20230219890A1, “BICYCLIC COMPOUNDS AND USE THEREOF” (Betta Pharmaceuticals Co.,Ltd, priority 2020, published 2023) come the findings set out here.

Structures are written as SMILES. A value given as a limit tells only on which side of the number the result lay.

The IC50 is the concentration at which inhibition is half-maximal. High values mean lower potency, low ones higher potency. In the case of `N#Cc1cc(-n2cc(C(F)(F)F)c3c2CCC(F)(F)[C@@H]3F)ccc1F` (single isomer, unassigned) [Example 197], the IC50 under setting [1] was at most 500 nM.
Same read-out and setting: the same measure for `N#Cc1cc(-n2cc(I)c3c2CCC(F)(F)C3O)ccc1F` (centres unmarked) [Example 5, 5-(5,5-difluoro-hydroxy-3-iodo-4,5,6,7-tetrahydro-1H-indol-1-yl)-2-fluorobenzonitrile]: 500 to 1500 nM.
On the same count and under the same terms, the same measure for `O=C1c2c(C(F)(F)F)cn(-c3cc(F)cc(Cl)c3)c2CCC1(F)F` [Example 6, 1-(3-chloro-5-fluorophenyl)-5,5-difluoro-3-(trifluoromethyl)-1,5,6,7-tetrahydro-4H-indol-4-one]: 500 to 1500 nM; for `N#Cc1ccc(-n2cc(C(F)(F)F)c3c2CCC(F)(F)C3O)cc1` (centres unmarked) [Example 13, 4-(5,5-difluoro-4-hydroxy-3 (trifluoromethyl)-4,5,6,7-tetrahydro-1H-indol-1-yl)benzonitrile]: at most 500 nM.
Under setting [2], `OC1c2c(C(F)(F)F)cn(-c3cc(F)cc(Br)c3)c2CCC1(F)F` (centres unmarked) [Example 22] yielded an IC50 of 55.4 nM.
Consider `OC1c2c(C(F)(F)F)cn(-c3cc(F)cc(C(F)(F)F)c3)c2CCC1(F)F` (centres unmarked) [Example 24], for which the IC50 under setting [1] was at most 500 nM.
`OC1c2c(C(F)(F)F)cn(Cc3cc(F)cc(Cl)c3)c2CCC1(F)F` (centres unmarked) [Example 29]: the IC50 (class symbols) fell in the range of 1500 to 10000 nM.
`N#Cc1cc(F)cc(-n2cc(C(F)(F)F)c3c2CCCC3O)c1` (centres unmarked) [Example 41, 3-fluoro-5-(4-hydroxy-3-(trifluoromethyl)-4,5,6,7-tetrahydo-1H-indol-1-yl)benzonitrile]: the IC50 under setting [1] lay in the range of 500 to 1500 nM.
For the molecule `Cn1cccc1-c1cn(-c2cc(F)cc(Cl)c2)c2c1C(O)C(F)(F)CC2` (centres unmarked) [Example 51, 1-(3-chloro-5-fluorophenyl)-5,5-difluoro-3-(1-methyl-1H-pyrrol-2-yl)-4,5,6,7-tetrahydro-1H-indol-4-ol], the half-maximal inhibitory concentration (IC50) under setting [1] lay in the range of 500 to 1500 nM.
Same read-out and setting: the same measure for `OC1c2c(-c3ccco3)cn(-c3cc(F)cc(Cl)c3)c2CCC1(F)F` (centres unmarked) [Example 53, 1-(3-chloro-5-fluorophenyl)-5,5-difluoro-3-(furan-2-yl)-4,5,6,7-tetrahydro-1H-indol-4-ol]: at most 500 nM; for `N#Cc1cc(-n2cc(-c3cncs3)c3c2CCC(F)(F)C3O)ccc1F` (centres unmarked) [Example 54, 5-(5,5-difluoro-4-hydroxy-3-(thiazol-5-yl)-4,5,6,7-tetrahydro-1H-indol-1-yl)-2-fluorobenzonitrile]: 500 to 1500 nM; for `OC1c2c(C(F)(F)F)cc(-c3cc(F)cc(Cl)c3)n2CCC1F` (centres unmarked) [Example 68, 3-(3-chloro-5-fluorophenyl)-7-fluoro-1-(trifluoromethyl)-5,6,7,8-tetrahydroindolizin-8-ol]: at most 500 nM.
Consider `OC1c2c(C(F)(F)F)cc(-c3cc(F)cc(Cl)c3)n2CCC1(F)F` (centres unmarked) [Example 71, 3-(3-chloro-5-fluoropheny1)-7,7-difluoro-1-(trifluoromethyl)-5,6,7,8-tetrahydroindolizin-8-ol], for which, under setting [2], it took 13.8 nM to reach half-maximal inhibition (IC50).
In turn, `OC1c2c(C(F)(F)F)cc(-c3cc(F)cc(F)c3)n2CCC1(F)F` (centres unmarked) [Example 76, 3-(3,5-difluorophenyl)-7,7-difluoro-1-(trifluoromethyl)-5,6,7,8-tetrahydroindolizin-8-ol] yielded an IC50 under setting [1] of at most 500 nM.
As to `N#Cc1cc(F)cc(-c2cc(C(F)(F)F)c3n2CCC(F)(F)C3O)c1` (centres unmarked) [Example 77, 3-(7,7-difluoro-8-hydroxy-1-(trifluoromethyl)-5,6,7,8-tetrahydroindolizin-3-yl)-5-fluorobenzonitrile], 16.2 nM corresponded to half-maximal inhibition under setting [2] (IC50).
For the molecule `OC1c2c(C(F)(F)F)nn(-c3cc(F)cc(F)c3)c2CCC1(F)F` (centres unmarked) [Example 88, 1-(3,5-difluorophenyl)-5,5-difluoro-3-(trifluoromethyl)-4,5,6,7-tetrahydro-1H-indazol-4-ol], under setting [1], the concentration for half-maximal inhibition (IC50) is over 1500 nM.
In the case of `OC1c2c(C(F)(F)F)nn(-c3cc(F)cc(Cl)c3)c2CCC1(F)F` (centres unmarked) [Example 90, 1-(3-chloro-5-fluorophenyl)-5,5-difluoro-3-(trifluoromethyl)-4,5,6,7-tetrahydro-1H-indazol-4-ol], the IC50 under setting [1] is over 1500 nM.
On the same count and under the same terms, with `N#Cc1cc(F)cc(-n2nc(C(F)(F)F)c3c2CCC(F)(F)C3O)c1` (centres unmarked) [Example 92] the figure was over 1500 nM.
The same measure, in the same setting: with `CS(=O)(=O)c1nn(Cc2ccc(F)cc2)c2c1C(=O)CCC2` [Example 93, 1-(4-fluorobenzyl)-3-(methylsulfonyl)-1,5,6,7-tetrahydro-4H-indazol-4-one] the figure was over 1500 nM; with `N#Cc1cn(-c2cc(F)cc(Cl)c2)c2c1C(O)C(F)(F)CC2` (centres unmarked) [Example 96, 1-(3-chloro-5-fluorophenyl)-5,5-difluoro-4-hydroxyl-4,5,6,7-tetrahydro-1H-indol-3-carbonitrile], at most 500 nM; with `OC1c2c(C(F)(F)F)cn(-c3cc(F)cc(Cl)c3)c2CCC1(F)F` (centres unmarked) [Example 97, 1-(3-chloro-5-fluorophenyl)-5,5-difluoro-3-(trifluoromethyl)-4,5,6,7-tetrahydro-1H-indol-4-ol], at most 500 nM.
The same measure, in the same setting: with `CC1(O)c2c(C(F)(F)F)cn(-c3ccc(F)c(C#N)c3)c2CCC1(F)F` (centres unmarked) [Example 100, 5-(5,5-difluoro-4-hydroxyl-4-methyl-3-(trifluoromethyl)-4,5,6,7-tetrahydro-1H-indol-1-yl)-2-fluorobenzonitrile] the figure was at most 500 nM.
For the molecule `O[C@H]1c2c(C(F)(F)F)c(Cl)n(-c3ccc(F)c(Cl)c3)c2CCC1(F)F` [Example 107, (S)-2-chloro-1-(3-chloro-54-fluorophenyl)-5,5-difluoro-3-(trifluoromethyl)-4,5,6,7-tetrahydro-1H-indol-4-ol], where the note is “class symbols”, the IC50 was at most 500 nM.
`OC1CCCc2c1c(C(F)(F)F)cn2-c1ccc(F)c(C(F)F)c1` (centres unmarked) [Example 108, 1-(3-(difluoromethyl)-4-fluorophenyl)-3-(trifluoromethyl)-4,5,6,7-tetrahydro-1H-indol-4-ol] displayed an IC50 under setting [1] of at most 500 nM.
On the same count and under the same terms, the same measure for `CS(=O)(=O)c1cn(-c2cc(F)cc(Cl)c2)c2c1C(O)C(F)(F)CC2` (centres unmarked) [Example 109, 1-(3-chloro-5-fluorophenyl)-5,5-difluoro-3-(methylsulfonyl)-4,5,6,7-tetrahydro-1H-indol-4-ol]: at most 500 nM.
The molecule `N#Cc1ccc(-n2cc(C(F)(F)F)c3c2CCC(F)(F)C3O)cc1F` (centres unmarked) [Example 122, 4-(5,5-difluoro-4-hydroxy-3-(trifluoromethyl)-4,5,6,7-tetrahydro-1H-indol-1-yl)-2-fluorobenzonitrile] came in with an IC50 under setting [2] of 42.6 nM.
With `OC1c2c(C(F)(F)F)cn(-c3ccc(Cl)cc3)c2CC(F)C1F` (stereo not drawn) [Example 130, l-(4-chlorophenyl)-5,6-difluoro-3-(trifluoromethyl)-4,5,6,7-tetrahydro-1H-indol-4-ol], the IC50 under setting [1] is at most 500 nM.
On the same count and under the same terms, the same measure for `OC1c2c(C(F)(F)F)cn(-c3cncc(F)c3)c2CC(F)C1F` (centres unmarked) [Example 132, 5,6-difluoro-1-(5-fluoropyridin-3-yl)-3-(trifluoromethyl)-4,5,6,7-tetranydro-1H-indol-4-ol]: at most 500 nM.
`OC1c2c(C(F)(F)F)cn(-c3cncc(F)c3)c2CCC1(F)F` (centres unmarked) [Example 133]: under setting [1], the IC50 was in the range of 500 to 1500 nM.
The molecule `CS(=O)(=O)c1cn(-c2ccc(F)c(C#N)c2)c2c1[C@H](O)C(F)(F)CC2` [Example 134, (S)-5-(5,5-difluoro-4-hydroxy-3-(methylsulfonyl)-4,5,6,7-tetrahydro-1H-indol-1-yl)-2-fluorobenzonitrile] showed an IC50 under setting [1] of at most 500 nM.
For the molecule `N#Cc1cc(-n2cc(C(F)(F)F)c3c2CCC(F)(F)C3O)ccc1Cl` (centres unmarked) [Example 137], under setting [2], half-maximal inhibition (IC50) required 42.1 nM.
`N#Cc1cc(F)cc(-n2cc(C(F)(F)F)c3c2CCC(F)C3O)c1` (centres unmarked) [Example 139, 3-fluoro-5-(5-fluoro-4-hydroxy-3-(trifluoromethyl)-4,5,6,7-tetrahydro-1H-indol-1-yl)benzonitrile]: the IC50 under setting [1] was at most 500 nM.
Molecule `OC1c2c(C(F)(F)F)cn(-c3cc(F)cc(Cl)c3)c2C(F)CC1F` (centres unmarked) [Example 141] showed an IC50 under setting [1] of at most 500 nM.
Still for that read-out and setting: with `OC1c2c(C(F)(F)F)cn(-c3cc(F)cc(Cl)c3)c2CCC1F` (centres unmarked) [Example 142, 1-(3-chloro-5-fluorophenyl)-5-fluoro-3-(trifluoromethyl)-4,5,6,7-tetrahydro-1H-indol-4-ol] the figure was at most 500 nM; with `OC1c2c(-c3ccccc3)cn(-c3cc(F)cc(Cl)c3)c2CCC1(F)F` (centres unmarked) [Example 145], 1500 to 10000 nM.
On the same count and under the same terms, with `N#Cc1cc(Cl)cc(-n2cc(C(F)(F)F)c3c2CCC(F)(F)C3O)c1` (centres unmarked) [Example 154, 3-chloro-5-(5,5-difluoro-4-hydroxy-3-(trifluoromethyl)-4,5,6,7-tetrahydro-1H-indol-1-yl)benzonitrile] the figure was at most 500 nM.
For the molecule `OC1c2c(C(F)(F)F)cn(-c3ccc(F)cc3)c2CCC1(F)F` (centres unmarked) [Example 160, 5,5-difluoro-1-(4-fluorophenyl)-3-(trifluoromethyl)-4,5,6,7-tetrahydro-1H-indol-4-ol], the IC50 under setting [2] amounted to 46.1 nM.
In turn, `OC1c2c(C(F)(F)F)cn(-c3ccc(F)c(F)c3)c2CCC1(F)F` (centres unmarked) [Example 164] came in with an IC50 under setting [1] of at most 500 nM.
Still for that read-out and setting: with `OC1c2c(C(F)(F)F)cn(-c3ccc(F)nc3)c2CCC1(F)F` (centres unmarked) [Example 170] the figure was 500 to 1500 nM.
Still for that read-out and setting: with `O[C@@H]1c2c(C(F)(F)F)cn(-c3ccc(F)c(C(F)F)c3)c2CCC1(F)F` [Example 174, (R)-1-(3-(difluoromethyl)-4-fluorophenyl)-5,5-difluoro-3-(trifluoromethyl)-4,5,6,7-tetrahydro-1H-indol-4-ol] the figure was 500 to 1500 nM; with `N#CC1c2c(C(F)(F)F)cn(-c3ccc(F)cc3)c2CCC1(F)F` (centres unmarked) [Example 178, 5,5-difluoro-1-(4-fluorophenyl)-3-(trifluoromethyl)-4,5,6,7-tetrahydro-1H-indole-4-carbonitrile], at most 500 nM.
